The numbers were not newly measured in US20090226898A1, “Mitochondrial markers of ischemia” (Inverness Medical Switzerland GMBH, priority 2005, published 2009), which cites them from elsewhere.

Data set [1] addresses T1, FMLP receptor (68-kDa protein) (Homo sapiens, UniProt P21462).
T1 sequence (P21462 1-350): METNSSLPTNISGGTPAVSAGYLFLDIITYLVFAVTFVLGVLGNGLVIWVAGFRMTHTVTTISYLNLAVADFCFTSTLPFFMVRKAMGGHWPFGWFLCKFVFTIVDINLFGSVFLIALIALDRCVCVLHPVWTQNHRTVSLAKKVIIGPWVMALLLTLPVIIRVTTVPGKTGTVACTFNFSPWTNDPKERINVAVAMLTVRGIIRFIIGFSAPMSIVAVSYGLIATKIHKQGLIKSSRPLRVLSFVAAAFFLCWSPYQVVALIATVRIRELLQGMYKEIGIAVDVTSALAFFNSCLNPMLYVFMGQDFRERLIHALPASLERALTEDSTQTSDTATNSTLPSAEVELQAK
As to conditions: binding to the 68-kDa protein.

The subject of data set [2] is human monocytes and formyl peptide receptor-like 1 (FPRL1)-transfected human embryonic kidney 293 cells. Conditions: human monocytes and FPRL1-transfected HEK 293 cells.
For data set [3] the test system is unchanged. Conditions: human monocytes and FPRL1-transfected HEK 293 cells. This is another data set of the same source.
A further data set concerns the target T2, FPR-like 2 (FPRL2) (Homo sapiens, UniProt P25089).
T2 sequence (P25089 1-353): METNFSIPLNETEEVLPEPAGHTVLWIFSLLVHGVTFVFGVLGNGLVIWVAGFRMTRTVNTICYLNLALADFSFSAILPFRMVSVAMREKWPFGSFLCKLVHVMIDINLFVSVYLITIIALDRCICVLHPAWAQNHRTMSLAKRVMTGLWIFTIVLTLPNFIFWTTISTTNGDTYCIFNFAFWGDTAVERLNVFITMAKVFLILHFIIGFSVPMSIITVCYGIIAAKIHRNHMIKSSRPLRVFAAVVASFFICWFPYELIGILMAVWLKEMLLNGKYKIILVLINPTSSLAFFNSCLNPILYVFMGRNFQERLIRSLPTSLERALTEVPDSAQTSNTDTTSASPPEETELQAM

The test system of the next data set is cardiac myocytes. As to conditions: immediately before ischemia.

As to RKAMGGHWPFGWFLCKF, the “inhibition of ligand binding” value in data set [1] is listed as “strongest inhibitor of ligand binding”. Turning to “LL-37: neutrophil granule- and epithelial cell-derived cathelicidin, from hCAP18 (aa1-37) (LLGDFFRKSKEKIGKEFKRIVQRIKDFLRNLVPRTES; Antibacterial peptide LL-37; UniProt P49913 134-170, looked up)”, the chemotaxis entry in data set [2] is reported as “chemotactic”. Further, the calcium mobilization entry in data set [3] is given as “can induce calcium mobilization”. On to formyl-Met-Leu-Phe [fMLP], for which, on FPR-like 2 (FPRL2), the receptor activation entry was “only activated by high (micromolar) concentrations”. Consider `C=C(C)[C@H]1Cc2c(ccc3c2O[C@@H]2COc4cc(OC)c(OC)cc4[C@@H]2C3=O)O1` [rotenone], for which the damage to mitochondria entry in the data set on cardiac myocytes is given as “reduces damage to mitochondria”. In addition, in the data set with cardiac myocytes (cardiac myocytes), the “production of ROS” value is listed as “decreases the production of ROS”.
